From patent US11214803B2, “Modulators of YAP1 expression” (Ionis Pharmaceuticals, Inc., priority 2019, dated 2022) come the findings set out here.

Strand notation (5' to 3'): a small letter for the sugar, then the base; units joined by * are phosphorothioate-linked, units joined directly phosphodiester-linked; [ ] holds rarer units or linkages, { } end groups; capitals alone tell only the bases. k = constrained ethyl (cEt); [5mC] = 5-methylcytosine; d = 2'-deoxy (DNA)

The test system of this series is Yap1 mRNA. In words: Antisense inhibition of human Yap1 in A-431 cells by cEt gapmers, single dose (Example 2, RTS4814). The series is classed as cell-based. A digest of the protocol:
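Yap1 mRNA levels, by real-time RT-PCR (RTS4814) and corrected for total RNA via RIBOGREEN, are given as percent of untreated cells. Gapmers (16-mer, cEt wings, phosphorothioate, 5-methylC) were delivered without transfection at 2,000 nM to A-431 cells for about 48 hours.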

Setting [1] is: A-431 cells, 5,000 cells per well, free uptake, 2,000 nM modified oligonucleotide, approx. 48 hours, RTS4814, normalized to RIBOGREEN, Table 4, asterisk (*) = targets amplicon region of primer probe set.
[2] abbreviates: Table 19, A-431 cells, 5,000 cells per well, free uptake, 2,000 nM modified oligonucleotide, approx. 48 hours, RTS4814, normalized to RIBOGREEN, Yap1 mRNA as percent of untreated control.
[3] abbreviates: Table 24, Yap1 mRNA as percent of untreated control, 3-10-3 cEt gapmers targeting SEQ ID NO.: 1, and 2.
The mark [4] stands for this setting: Table 22, Yap1 mRNA as percent of untreated control, 3-10-3 cEt gapmers, single dose.
Setting [5] is: Yap1 mRNA as percent of untreated control, A-431 cells, 3-10-3 cEt gapmers targeting SEQ ID NO.: 1, and 2, Table 31.

With “716398 (kT*kA*kT*dT*d[5mC]*d[5mC]*dG*d[5mC]*dA*dT*dT*dG*d[5mC]*k[5mC]*kT*kG; antisense) [Compound 716398]”, for the setting “Table 5, A-431 cells, 5,000 cells per well, free uptake, 2,000 nM modified oligonucleotide, approx. 48 hours, RTS4814, normalized to RIBOGREEN, Yap1 mRNA relative to untreated control cells”, the “YAP1 (% UTC)” value is listed as 70 % UTC.

With “1075398 (antisense kT*kA*kT*dA*dT*dA*dT*dG*dG*d[5mC]*d[5mC]*d[5mC]*dT*kT*kT*kA) [Compound 1075398]”, the “YAP1 (% UTC)” value (Table 20, Yap1 mRNA, percent of untreated control, 3-10-3 cEt gapmers targeting SEQ ID NO.: 1 and 2) was 49 % UTC.

On to “716496 (kG*kA*kA*dG*dA*dG*dA*dT*dT*dT*dT*dA*dT*kG*k[5mC]*k[5mC]; antisense) [Compound 716496]”, for which, under setting [1], the “YAP1 (% UTC)” value was found to be 19 % UTC.

Take “1074642 (antisense kG*kG*kG*d[5mC]*d[5mC]*dA*dA*dA*dA*dT*dA*d[5mC]*dT*kT*kA*kG) [compound 1074642]”: under “Table 32, Yap1 mRNA, percent of untreated control, 3-10-3 cEt gapmers targeting SEQ ID NO.: 1, and 2”, the “YAP1 (% UTC)” value was found to be 78 % UTC.

For the substance “1074981 (antisense kT*kT*kA*dT*dT*dG*d[5mC]*d[5mC]*dA*dG*dT*dT*d[5mC]*kT*kT*kG) [Compound 1074981]”, the “YAP1 (% UTC)” value under setting [2] is on record as 9 % UTC.

For “1075312 (antisense kT*kT*kA*dA*dT*dT*dG*dA*dA*d[5mC]*dT*d[5mC]*dA*kG*kG*kG) [compound 1075312]”, the “YAP1 (% UTC)” value (Yap1 mRNA as percent of untreated control, A-431 cells, 3-10-3 cEt gapmers targeting SEQ ID NO.: 1, and 2, Table 30) worked out at 37 % UTC.

Take “716391 (kG*kG*kA*dG*d[5mC]*dA*d[5mC]*dT*d[5mC]*dT*dG*dA*d[5mC]*kT*kG*kA; antisense) [Compound 716391]”: the “YAP1 (% UTC)” value under setting [1] is 44 % UTC.

For “1074890 (antisense kG*kA*kA*dG*dT*dT*dT*dA*dG*d[5mC]*d[5mC]*dT*dG*kA*kA*kG) [Compound 1074890]”, the “YAP1 (% UTC)” value under setting [3] was found to be 58 % UTC.

For the substance “1074344 (antisense kT*kG*kA*dG*dA*d[5mC]*dA*dT*d[5mC]*d[5mC]*d[5mC]*dG*dG*kG*kA*kG) [Compound 1074344]”, the “YAP1 (% UTC)” value under setting [4] is reported as 99 % UTC.

For the substance “1075656 (kA*kA*kA*dA*d[5mC]*dG*dG*dT*dT*dT*dT*dT*d[5mC]*kT*kA*kA; antisense) [Compound 1075656]”, under setting [4], the “YAP1 (% UTC)” value came to 103 % UTC.

In the case of “1074129 (k[5mC]*k[5mC]*k[5mC]*dG*dG*d[5mC]*dT*d[5mC]*d[5mC]*dA*d[5mC]*dT*dG*kG*kT*k[5mC]; antisense) [compound 1074129]”, the “YAP1 (% UTC)” value under setting [5] is 77 % UTC.

Take “1075175 (antisense kA*k[5mC]*kT*dG*dA*dA*dA*dG*dA*dT*dT*d[5mC]*d[5mC]*kA*kT*kG) [Compound 1075175]”: for the setting “Table 21, Yap1 mRNA, percent of untreated control, 3-10-3 cEt gapmers targeting SEQ ID NO.: 1 and 2”, the “YAP1 (% UTC)” value is on record as 99 % UTC.

Take “1074571 (antisense kT*kA*kT*dG*dA*dA*d[5mC]*d[5mC]*dT*dA*d[5mC]*dT*d[5mC]*kA*k[5mC]*kT) [Compound 1074571]”: the “YAP1 (% UTC)” value (Table 25, Yap1 mRNA as percent of untreated control, 3-10-3 cEt gapmers targeting SEQ ID NO.: 1, and 2) came out at 37 % UTC.

As to “1076234 (k[5mC]*k[5mC]*kT*dT*dA*dA*dT*dA*dT*dA*dT*d[5mC]*d[5mC]*kA*k[5mC]*kA; antisense) [Compound 1076234]”, the “YAP1 (% UTC)” value under setting [3] was determined as 24 % UTC.

For “1076136 (k[5mC]*kA*kA*d[5mC]*dA*dA*d[5mC]*d[5mC]*dT*d[5mC]*dA*dT*dG*kT*kA*kA; antisense) [Compound 1076136]”, under setting [4], the “YAP1 (% UTC)” value is 60 % UTC.

With “1075473 (kA*kG*kT*dT*dA*dT*dA*dA*d[5mC]*dT*dG*dT*dA*k[5mC]*kT*kA; antisense) [compound 1075473]”, under setting [5], the “YAP1 (% UTC)” value is on record as 89 % UTC.

Turning to “716483 (k[5mC]*kA*kA*dA*dA*d[5mC]*d[5mC]*dT*dT*dA*dT*dA*dG*kT*kA*kT; antisense) [Compound 716483]”, where the note is “Table 6, A-431 cells, 5,000 cells per well, free uptake, 2,000 nM modified oligonucleotide, approx. 48 hours, RTS4814, normalized to RIBOGREEN, Yap1 mRNA relative to untreated control cells”, the “YAP1 (% UTC)” value is on record as 159 % UTC.

As to “716367 (k[5mC]*kA*kT*dG*dG*dG*d[5mC]*dA*d[5mC]*dG*dG*dT*d[5mC]*kT*kG*kG; antisense) [Compound 716367]”, the “YAP1 (% UTC)” value under setting [1] was 70 % UTC.

As to “716415 (kA*kG*k[5mC]*dT*d[5mC]*d[5mC]*dT*d[5mC]*dT*d[5mC]*d[5mC]*dT*dT*k[5mC]*kT*kA; antisense) [Compound 716415]”, under setting [1], the “YAP1 (% UTC)” value turned out to be 90 % UTC.

With “1075333 (kA*kG*kT*dT*dA*dA*d[5mC]*dA*dA*dA*dG*d[5mC]*dG*kG*kG*kT; antisense) [Compound 1075333]”, under setting [2], the “YAP1 (% UTC)” value was 14 % UTC.
